Test results taken from PubChem BioAssay AID1845215 (Molecular Pharmacology Branch, DTP, NCI, 2023).
Several values for one entry are separate records, joined by “and”; a condition that tells them apart may be missing. Identical values can stand only once.

Tested on: SW 1271 complex tumor spheroid viability
Experiment: Anticancer human tumor SW 1271 cell line growth inhibition;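 further: spheroids exposed to agents for seven days before readout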;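 on viability, T/C: percent of DMSO vehicle control luminescence so 100% = vehicle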
Details: for viability, T/C: stronger effect = lower value
Outline: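 Complex spheroids of malignant cells with endothelial cells and mesenchymal stem cells; agents alone or combined, from near clinical Cmax (or 10 microM if unknown) down in half-log steps, 0.25% DMSO final.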

[1] = curve of first compound, second compound 0.003 µM
[2] = curve of first compound, second compound 0.00949 µM
[3] = curve of first compound, second compound 0.03 µM
[4] = curve of first compound, second compound 0.0949 µM
[5] = curve of first compound, second compound 0.3 µM

## COc1cc(C)[nH]c(=O)c1CN1CCc2c(Cl)cc(C(OC)C3COC3)c(Cl)c2C1=O (centres undefined) + Cn1nnc2c(C(N)=O)ncn2c1=O
Curve of first compound, second compound 1 µM
  IC50: > 10000 nM
Curve of first compound, second compound 3.16 µM
  IC50: > 10000 nM
Curve of first compound, second compound 10 µM
  IC50: > 10000 nM
Curve of first compound, second compound 31.6 µM
  IC50: > 10000 nM
Curve of first compound, second compound 100 µM
  IC50: > 10000 nM
Second compound 1 µM, first compound 0.0316 µM
  viability, T/C: 92.5%
Second compound 1 µM, first compound 0.1 µM
  viability, T/C: 90.5%
Second compound 1 µM, first compound 0.316 µM
  viability, T/C: 91.2%
Second compound 1 µM, first compound 1 µM
  viability, T/C: 86.1%
Second compound 1 µM, first compound 3.16 µM
  viability, T/C: 77.5%
Second compound 1 µM, first compound 10 µM
  viability, T/C: 76.7%
Second compound 3.16 µM, first compound 0.0316 µM
  viability, T/C: 98.1%
Second compound 3.16 µM, first compound 0.1 µM
  viability, T/C: 90.2%
Second compound 3.16 µM, first compound 0.316 µM
  viability, T/C: 90.3%
Second compound 3.16 µM, first compound 1 µM
  viability, T/C: 94.4%
Second compound 3.16 µM, first compound 3.16 µM
  viability, T/C: 85%
Second compound 3.16 µM, first compound 10 µM
  viability, T/C: 82.3%
Second compound 10 µM, first compound 0.0316 µM
  viability, T/C: 98.2%
Second compound 10 µM, first compound 0.1 µM
  viability, T/C: 93.5%
Second compound 10 µM, first compound 0.316 µM
  viability, T/C: 96.1%
Second compound 10 µM, first compound 1 µM
  viability, T/C: 83.8%
Second compound 10 µM, first compound 3.16 µM
  viability, T/C: 87.8%
Second compound 10 µM, first compound 10 µM
  viability, T/C: 81.4%
Second compound 31.6 µM, first compound 0.0316 µM
  viability, T/C: 97.1%
Second compound 31.6 µM, first compound 0.1 µM
  viability, T/C: 89.8%
Second compound 31.6 µM, first compound 0.316 µM
  viability, T/C: 99.3%
Second compound 31.6 µM, first compound 1 µM
  viability, T/C: 100%
Second compound 31.6 µM, first compound 3.16 µM
  viability, T/C: 88.5%
Second compound 31.6 µM, first compound 10 µM
  viability, T/C: 80.2%
Second compound 100 µM, first compound 0.0316 µM
  viability, T/C: 88.7%
Second compound 100 µM, first compound 0.1 µM
  viability, T/C: 96.3%
Second compound 100 µM, first compound 0.316 µM
  viability, T/C: 84.2%
Second compound 100 µM, first compound 1 µM
  viability, T/C: 80.7%
Second compound 100 µM, first compound 3.16 µM
  viability, T/C: 77.3%
Second compound 100 µM, first compound 10 µM
  viability, T/C: 76.1%

## COc1ccc([C@@H](O)c2cc(-c3ncnc4cc(N5CCOCC5)ccc34)c(F)cc2Cl)nn1 + CC[C@@]1(O)C(=O)OCc2c1cc1n(c2=O)Cc2cc3c(CN(C)C)c(O)ccc3nc2-1
[1]
  IC50: 1230 nM
[2]
  IC50: 103 nM
[3]
  IC50: < 31.6 nM
[4]
  IC50: < 31.6 nM
[5]
  IC50: < 31.6 nM
Second compound 0.003 µM, first compound 0.0316 µM
  viability, T/C: 83.3%
Second compound 0.003 µM, first compound 0.1 µM
  viability, T/C: 85.1%
Second compound 0.003 µM, first compound 0.316 µM
  viability, T/C: 75.2%
Second compound 0.003 µM, first compound 1 µM
  viability, T/C: 54.3%
Second compound 0.003 µM, first compound 3.16 µM
  viability, T/C: 26.9%
Second compound 0.003 µM, first compound 10 µM
  viability, T/C: 6.38%
Second compound 0.00949 µM, first compound 0.0316 µM
  viability, T/C: 57.9%
Second compound 0.00949 µM, first compound 0.1 µM
  viability, T/C: 53%
Second compound 0.00949 µM, first compound 0.316 µM
  viability, T/C: 37.9%
Second compound 0.00949 µM, first compound 1 µM
  viability, T/C: 29.6%
Second compound 0.00949 µM, first compound 3.16 µM
  viability, T/C: 19.6%
Second compound 0.00949 µM, first compound 10 µM
  viability, T/C: 6.43%
Second compound 0.03 µM, first compound 0.0316 µM
  viability, T/C: 31.5%
Second compound 0.03 µM, first compound 0.1 µM
  viability, T/C: 31.1%
Second compound 0.03 µM, first compound 0.316 µM
  viability, T/C: 28.8%
Second compound 0.03 µM, first compound 1 µM
  viability, T/C: 28.6%
Second compound 0.03 µM, first compound 3.16 µM
  viability, T/C: 19.9%
Second compound 0.03 µM, first compound 10 µM
  viability, T/C: 6.27%
Second compound 0.0949 µM, first compound 0.0316 µM
  viability, T/C: 27.9%
Second compound 0.0949 µM, first compound 0.1 µM
  viability, T/C: 27.6%
Second compound 0.0949 µM, first compound 0.316 µM
  viability, T/C: 25%
Second compound 0.0949 µM, first compound 1 µM
  viability, T/C: 25.9%
Second compound 0.0949 µM, first compound 3.16 µM
  viability, T/C: 21.7%
Second compound 0.0949 µM, first compound 10 µM
  viability, T/C: 3.71%
Second compound 0.3 µM, first compound 0.0316 µM
  viability, T/C: 13%
Second compound 0.3 µM, first compound 0.1 µM
  viability, T/C: 14.8%
Second compound 0.3 µM, first compound 0.316 µM
  viability, T/C: 15%
Second compound 0.3 µM, first compound 1 µM
  viability, T/C: 10.2%
Second compound 0.3 µM, first compound 3.16 µM
  viability, T/C: 1.72%
Second compound 0.3 µM, first compound 10 µM
  viability, T/C: 0.2%

## Cn1ncnc1[C@H]1c2n[nH]c(=O)c3cc(F)cc(c23)N[C@@H]1c1ccc(F)cc1
Compound 0.00949 µM
  viability, T/C: 39.3% and 40% and 67.2%
Compound 0.03 µM
  viability, T/C: 31.9% and 32.7% and 44.5%
Compound 0.0949 µM
  viability, T/C: 21.2% and 24.7% and 35.2%
Compound 0.3 µM
  viability, T/C: 24.9% and 26.4% and 34.4%
Compound 0.949 µM
  viability, T/C: 25.2% and 26.3% and 30.4%
Compound 3 µM
  viability, T/C: 21.1% and 25.1% and 26.3%
Curve of compound
  IC50: < 9.49 nM and 23.5 nM

## Cc1sc2c(c1C)C(c1ccc(Cl)cc1)=NC(CC(=O)Nc1ccc(O)cc1)c1nnc(C)n1-2 (centres undefined)
Compound 0.00949 µM
  viability, T/C: 112% and 133% and 111%
Compound 0.03 µM
  viability, T/C: 98.6% and 108% and 112%
Compound 0.0949 µM
  viability, T/C: 38.7% and 40.3% and 67.7%
Compound 0.3 µM
  viability, T/C: 4.84% and 5.32% and 10.5%
Compound 0.949 µM
  viability, T/C: 1.98% and 1.57% and 1.36%
Compound 3 µM
  viability, T/C: 1.53% and 0.84% and 1.11%
Curve of compound
  IC50: 76.2 nM and 80.2 nM and 136 nM

## O=C(c1cc(Cc2n[nH]c(=O)c3ccccc23)ccc1F)N1CCN(C(=O)C2CC2)CC1 + CC[C@@]1(O)C(=O)OCc2c1cc1n(c2=O)Cc2cc3c(CN(C)C)c(O)ccc3nc2-1
[1]
  IC50: < 94.9 nM
[2]
  IC50: < 94.9 nM
[3]
  IC50: < 94.9 nM
[4]
  IC50: < 94.9 nM
[5]
  IC50: < 94.9 nM
Second compound 0.003 µM, first compound 0.0949 µM
  viability, T/C: 34.5%
Second compound 0.003 µM, first compound 0.3 µM
  viability, T/C: 42.2%
Second compound 0.003 µM, first compound 0.949 µM
  viability, T/C: 40.8%
Second compound 0.003 µM, first compound 3 µM
  viability, T/C: 27.9%
Second compound 0.003 µM, first compound 9.49 µM
  viability, T/C: 27.4%
Second compound 0.003 µM, first compound 30 µM
  viability, T/C: 25.8%
Second compound 0.00949 µM, first compound 0.0949 µM
  viability, T/C: 27%
Second compound 0.00949 µM, first compound 0.3 µM
  viability, T/C: 27%
Second compound 0.00949 µM, first compound 0.949 µM
  viability, T/C: 28.1%
Second compound 0.00949 µM, first compound 3 µM
  viability, T/C: 25.3%
Second compound 0.00949 µM, first compound 9.49 µM
  viability, T/C: 29.2%
Second compound 0.00949 µM, first compound 30 µM
  viability, T/C: 28.3%
Second compound 0.03 µM, first compound 0.0949 µM
  viability, T/C: 25%
Second compound 0.03 µM, first compound 0.3 µM
  viability, T/C: 25.5%
Second compound 0.03 µM, first compound 0.949 µM
  viability, T/C: 29.5%
Second compound 0.03 µM, first compound 3 µM
  viability, T/C: 37.1%
Second compound 0.03 µM, first compound 9.49 µM
  viability, T/C: 26.1%
Second compound 0.03 µM, first compound 30 µM
  viability, T/C: 29.7%
Second compound 0.0949 µM, first compound 0.0949 µM
  viability, T/C: 34.8%
Second compound 0.0949 µM, first compound 0.3 µM
  viability, T/C: 26.4%
Second compound 0.0949 µM, first compound 0.949 µM
  viability, T/C: 28.4%
Second compound 0.0949 µM, first compound 3 µM
  viability, T/C: 27.1%
Second compound 0.0949 µM, first compound 9.49 µM
  viability, T/C: 28.7%
Second compound 0.0949 µM, first compound 30 µM
  viability, T/C: 28%
Second compound 0.3 µM, first compound 0.0949 µM
  viability, T/C: 16.1%
Second compound 0.3 µM, first compound 0.3 µM
  viability, T/C: 13.4%
Second compound 0.3 µM, first compound 0.949 µM
  viability, T/C: 12.1%
Second compound 0.3 µM, first compound 3 µM
  viability, T/C: 10.5%
Second compound 0.3 µM, first compound 9.49 µM
  viability, T/C: 19%
Second compound 0.3 µM, first compound 30 µM
  viability, T/C: 8.08%
